# Reference: article PMC7698306, “Exploring the Role of a Novel Peptide from Allomyrina dichotoma Larvae in Ameliorating Lipid Metabolism in Obesity” (International Journal of Molecular Sciences, 2020)
# Values joined by “and” are separate entries in the source; they are usually repeats but may differ in a detail not shown here. Identical values can stand only once. No end group written: not given here.
# Tests used:
# [1] = test system: adiponectin, leptin, SREBP-1c, PPARγ, C/EBP-α, FAS, ACC, FABP4; assay: mRNA (real-time PCR) and protein (Western blot, ELISA) levels of adipogenic/lipogenic factors in HFD-fed mice; assay type: in vivo, C57BL/6 mice
# From the text: (§1) Four-week-old male C57BL/6 mice were purchased from the Nara Bio Animal Center (NARA Biotech, Seoul, Korea) All experiments were approved by the Institutional Animal Care and Use Committee of Konkuk University (14 July 2019). All possible efforts were made to minimize the suffering and the animal count utilized in this study (KU19102). The mice were randomly divided into the following two groups after 1 week of acclimatization: n = 8 in the control group, fed a normal diet (Control, fat content of 10% kcal), and n = 30, fed a high-fat diet (HFD, fat content of 60% kcal). Mice were registered daily for food intake, and their body weights were assessed twice a week. After 5 weeks, mice with a body weight 20% higher than that of the control group were picked and divided randomly into three groups (n = 8/group): HFD + EIA10, 100 mg/kg/d; and HFD + orlistat, 60 mg/kg /d for 5 weeks. As a positive control, Orlistat was used. After 12 weeks, the mice were subjected to fasting overnight and sacrificed (Figure 2A). Blood samples were harvested for further analysis. Sections of epididymal adipose and liver tissues were fixed in 10% formaldehyde for histological analyses and frozen in liquid nitrogen.
# (§2) Through heart puncture, blood samples were collected and serum was isolated through centrifugation (3000 rpm for 20 min) and processed before further study at −80 °C. An automated analyzer (Abaxis VETSVAN VS2 Chemistry Analyzer, Union City, CA, USA) assessed serum levels of blood urea nitrogen, alanine aminotransferase (ALT), alkaline phosphatase, aspartate aminotransferase (AST), total protein, serum albumin, and electrolytes. Using a fast blood lipid analyzer (OSANG Healthcare Lipid Pro, Anyang, Korea), total cholesterol (TC), low-density lipoprotein cholesterol (LDL), high-density lipoprotein cholesterol (HDL), and TG were calculated. Adiponectin was analyzed by Western blotting, and leptin was quantified using a leptin enzyme-linked immunosorbent assay (ELISA) kit (MERCK, DHB, Germany).
# Total cellular RNA was isolated from the epididymal adipose tissue of each group of mice using TRIzol. The first strand of complementary DNA (cDNA) was synthesized using Superscript II reverse transcriptase (Invitrogen). The conditions for RT-PCR were similar to those previously described. Quantitative real-time PCR was carried out using a Thermal Cycler Dice TP850 (Takarabio Inc., Shiga, Japan) according to the manufacturer’s protocol.
# Frozen epididymal adipose tissues from mice were homogenized in liquid nitrogen. Tissue lyses were lysed in a radioimmunoprecipitation lysis buffer containing 1% protein inhibitor cocktail. They were transferred to a nitrocellulose blotting membrane and blocked with 5% skim milk, incubated overnight with primary antibodies purchased from Cell Signaling Technology, and then incubated with secondary antibodies for 2 h. Equal protein loading was ascertained using Ponceau S staining of the blotted membranes. With the help of an improved chemiluminescence detection reagent, the antibody-specific proteins were visualized and quantified using ImageJ tools.
# HFD-fed mice [2] = assay: Body weight, energy intake, organ and adipose tissue weights, DXA body fat in high-fat diet (HFD)-fed mice; assay type: in vivo, C57BL/6 mice
# From the text: as §1
# Dual-energy X-ray absorptiometry (DXA) measurements were used to compare the body fat. DXA measurements were performed after 4 weeks of administration using a total-body scanner (InAlyzer dual X-ray absorptiometry, Medikors, Gyeonggi, Korea). Data were obtained once with low energy and once with high energy.
# HFD-fed mice [3] = assay: Serum biochemical parameters in HFD-fed mice; assay type: in vivo, C57BL/6 mice; conditions: EIA10 100 mg/kg/d or orlistat 60 mg/kg/d oral for 5 weeks, mean ± SEM, n = 8
# From the text: as §1, §2
# 3T3-L1 cells = assay: Lipid accumulation in differentiated 3T3-L1 cells by Oil Red O staining; assay type: cell-based; conditions: synthesized peptides, untreated cells as control
# Description: The 3T3-L1 cells were obtained from the Korean Cell Line Bank (Seoul, Korea). They were cultured and maintained in Dulbecco’s modified Eagle medium (DMEM) at 37 °C in a humidified atmosphere of 5% CO2. Additionally, 2-day post-confluent preadipocytes (designated day 0) were cultured in a 2-day differentiation medium composed of DMEM, 0.5 mM IBMX, 1 μM dexamethasone, and 5 μg/mL insulin to induce differentiation. The cells were then cultured in a DMEM containing 5 μg/mL insulin for another 2 days. The medium was replaced every 2 days until the cells had accumulated intracellular lipid droplets. Cells were seeded in 6-well plates, and adipocyte differentiation was induced for 8 days. On day 8, the cells were fixed with 10% buffered formalin and stained with Oil Red O solution for 60 min at room temperature. Images of lipid droplets in the 3T3-L1 adipocytes were captured using a Leica DMi1 microscope (Leica, Germany).
# HFD-fed mice [4] = assay: Histological analysis of liver and epididymal adipose tissue (H&E, Oil Red O, IHC) of HFD-fed mice; assay type: in vivo, C57BL/6 mice
# From the text: as §1
# Liver and epididymal adipose tissues were dissected and embedded in paraffin for histological examination. Tissue blocks were cut into 4-μm thick sections that were stained with hematoxylin and eosin. Frozen liver sections were cut into 8-μm thick sections that were stained with Oil Red O. Adipocyte sizes were assessed using a microscope under 200× magnification to measure tissue size.
# [5] = male C57BL/6 mice on HFD, EIA10 100 mg/kg/d or orlistat 60 mg/kg/d oral for 5 weeks, mean ± SEM, n = 8
sequence,measurement,setting,value
EIAQDFKTDL [EIA10],plasma leptin concentration,"[1]; ELISA, HFD-fed mice, Figure 4B",reducing
same,mRNA and protein levels of SREBP-1c in the adipose tissue,"[1]; HFD-fed mice treated with EIA10 vs HFD group, Figure 4C,D",lower
same,protein levels of adiponectin in mouse epididymal adipose tissue,"[1]; Western blot, HFD-fed mice, Figure 4A",improved
same,mRNA and protein levels of PPARγ,"[1]; epididymal adipose tissue, HFD group mice, Figure 4C,D",decreased
same,"protein levels of PPARγ, C/EBP-α, SREBP-1c, and FABP4","[1]; epididymal adipose tissue, Western blot, Figure 4D",significantly decreased
same,FAS and ACC gene expression,"[1]; epididymal adipose tissue, Western blot, Figure 5A,B",inhibitory effect
same,"expression of PPARγ, C/EBP-α, FAS, and SREBP-1c","[1]; epididymal adipose tissue, real-time PCR, Figure 4C",downregulated
same,Total fat weight,"HFD-fed mice [2]; DXA, male C57BL/6 mice on HFD, EIA10 100 mg/kg/d or orlistat 60 mg/kg/d oral, mean ± SEM, n = 8",12.71 ± 0.78 g
same,food intake between different drug groups (appetite),"HFD-fed mice [2]; HFD-fed mice, EIA10 100 mg/kg/d or orlistat 60 mg/kg/d oral",No significant difference
same,Epididymal adipose tissue weight,HFD-fed mice [2]; [5],2.06 ± 0.34 g
same,Final body weight,HFD-fed mice [2]; [5],37.38 ± 2.55 g
same,Initial body weight,HFD-fed mice [2]; [5],23.07 ± 0.33 g
same,Interscapular adipose tissue weight,HFD-fed mice [2]; [5],0.22 ± 0.06 g
same,Liver weight,HFD-fed mice [2]; [5],1.22 ± 0.25 g
same,Subcutaneous adipose tissue weight,HFD-fed mice [2]; [5],3.36 ± 0.58 g
same,Total energy intake,"HFD-fed mice [2]; over 10 weeks, male C57BL/6 mice on HFD, EIA10 100 mg/kg/d or orlistat 60 mg/kg/d oral for 5 weeks, mean ± SEM, n = 8",1026.01 kcal and 1026.01 ± 2.60 kcal
same,Glucose,HFD-fed mice [3],137 ± 11.47 mg/dL
same,ALT (alanine aminotransferase),HFD-fed mice [3]; serum,58.75 ± 13.16 U/L
same,AST (aspartate aminotransferase),HFD-fed mice [3]; serum,99.20 ± 20.00 U/L
same,HDL (high-density lipoprotein cholesterol),HFD-fed mice [3]; serum,74.49 ± 2.57 mg/dL
same,LDL/VLDL,HFD-fed mice [3]; serum,32.97 ± 3.42 mg/dL
same,TC (total cholesterol),HFD-fed mice [3]; serum,107.46 ± 5.15 mg/dL
same,TG (triglyceride),HFD-fed mice [3]; serum,140.25 ± 5.23 mg/dL
same,Lipid Accumulation (% of Control),3T3-L1 cells,30.22 % of Control
same,lipid droplets in the liver (Oil Red O staining of frozen sections),"HFD-fed mice [4]; EIA10 100 mg/kg/d oral 5 weeks, vs HFD group, Figure 2C,E",significantly reduced number of lipid droplets
same,"size of the adipose cells (epididymal fat, H&E)","HFD-fed mice [4]; EIA10 100 mg/kg/d oral 5 weeks, vs HFD group, Figure 2D",lower than that of the HFD group
same,FAS in liver tissue by immunohistochemistry (IHC),HFD-fed mice [4]; Figure 5C,inhibited
